From patent publication US8729074B2, “Inhibitors of PI3 kinase” (Amgen Inc., priority 2009, dated 2014) come the findings set out here.

In assay [1] the target is T1, PI3Kα (Homo sapiens (Human), UniProt P42336). Briefly: In vitro PI3K AlphaScreen assay. In kind it is biochemical. The settings on record: average if run more than once. As for the experimental part: In Vitro PI3K AlphaScreen® Assay
The PI3K AlphaScreen® assay (PerkinElmer, Waltham, Mass.) measures the activity of a panel of four phosphoinositide 3-kinases: PI3Kα, PI3Kβ, PI3Kγ, and PI3Kδ. Each of these enzymes phosphorylates the 3′-hydroxyl group on phosphatidylinositiol (4,5)-bisphosphate (PIP2) to produce phosphatidylinositol (3,4,5)-trisphosphate (PIP3). This phosphorylation activity is measured using a GST-tagged PIP3 binding protein (Echelon Biosciences, Salt Lake City, Utah), an anti-GST-tagged Acceptor bead, and streptavidin-Donor bead. […] In the absence of this interaction, proximity of the Donor and Acceptor beads is decreased, producing a loss of luminescent signal which is inversely proportional to PI3K activity.
The enzyme reaction buffer is made using sterile water (Baxter, Deerfield, Ill.) and 50 mM Tris HCl pH 7, 14 mM MgCl2, 2 mM sodium cholate, and 100 mM NaCl. 2 mM DTT is added fresh the day of the experiment. The AlphaScreen® reaction buffer is made using sterile water and 10 mM Tris HCl pH 7.5, 150 mM NaCl, 0.10% Tween 20, and 30 mM EDTA. 1 mM DTT is added fresh the day of the experiment.
The source plates for this assay are 384-well Greiner clear polypropylene plates containing test compounds at 5 mM and diluted 1:2 over 22 points. Columns 23 and 24 contain only DMSO as these are designated for positive and negative controls. Source plates are replicated into 384-well Optiplates (PerkinElmer, Waltham, Mass.), 0.5 μL/well, to make assay-ready plates.
The different PI3K isoforms are each diluted in enzyme reaction buffer to 2× working solutions. […] Two different 2× substrate solutions are made in enzyme reaction buffer. In one solution, PI(4,5)P2 (Echelon Biosciences, Salt Lake City, Utah) is diluted to 10 μM and ATP is diluted to 20 μM. This solution is used in the assays testing PI3Kα and PI3Kβ. In a second solution, PI(4,5)P2 is diluted to 10 μM and ATP is diluted to 8 μM. This solution is used in the assays testing PI3Kγ and PI3Kδ.
The AlphaScreen® reaction solutions are made using beads from the anti-GST AlphaScreen® kit (PerkinElmer, Waltham, Mass.). Two solutions are made in Alphascreen reaction buffer to 4× working concentrations. In one solution, biotinylated-IP4 (Echelon Biosciences, Salt Lake City, Utah) is diluted to 40 nM and streptavadin-Donor Beads are diluted to 80 μg/mL. In the second solution, PIP3-binding protein (Echelon Biosciences, Salt Lake City, Utah) is diluted to 40 nM and anti-GST-Acceptor Beads are diluted to 80 μg/mL. 10 μL/well of enzyme reaction buffer is added to Column 24 of the assay ready plates in place of enzyme. This is done for plates in the PI3Kα, β, and δ assays.
Using a 384-well dispensing Multidrop (Titertek, Huntsville, Ala.), 10 μL/well of 2× enzyme (PI3Kα, β, δ) is added to Columns 1-23 of the appropriate assay ready plates (for PI3Kγ 10 μL is added to Columns 1-24). 10 μL/well of the appropriate substrate solution (the solution with 20 μM ATP for PI3Kα and β assays, and the solution with […] for PI3Kγ and δ assays) is then added to Columns 1-24 of the plates. Plates are then incubated at room temperature for 20 minutes.
In the dark, 10 μL/well of the Donor Bead solution is added to Columns 1-24 of the plates to quench the enzyme reaction. The plates are incubated at room temperature for 30 minutes. Still in the dark, 10 μL/well of the Acceptor Bead solution is also added to Columns 1-24 of the plates. The plates are then incubated in the dark for 1.5 hours. The plates are read on an Envision Multilabel Plate Reader (PerkinElmer, Waltham, Mass.) with a 680 nm excitation filter and a 520-620 nm emission filter.
Activity data for the compounds tested in the assay is provided in Table 1 under the column heading PI3Kα AlphaScreen®.
Background: Alpha assays give light when donor and acceptor beads are brought close together.

Assay [2] has as its system phosphorylation of Akt at Serine 473 in U87 MG cells. The assay can be described thus: pAkt AlphaScreen (U87 cell). Conditions: Homo sapiens, U-87 MG, 2 h; pAkt Ser473, U87 MG cells, compound two hours; average if run more than once. In kind it is cell-based. As for the experimental part: pAkt AlphaScreen (U87 Cell)
The pAkt AlphaScreen® assay (PerkinElmer, Waltham, Mass.) determines whether there is phosphorylation of Akt at Serine 473 by recruitment of a phosphospecific antibody. This assay was performed using U87 MG cells. The U87 growth media consists of MEM (Gibco, Carlsbad, Calif.) supplemented with 10% FBS (Gibco), 1× Non-Essential Amino Acids (Gibco) and 1× Penicillin/Streptomycin/Glutamine (Gibco). The cells were maintained weekly using 0.05% Trypsin (Gibco) and replated in 150 mm TC—Treated Culture Dishes (Corning, Corning, N.Y.).
The first day of the assay, the adherent cells were trypsinized, media was added to the loose cells and cells were mixed to a homogenous mixture. 0.5 ml of the homogenous mixture was counted on the Beckman Coulter® Vi-CELL™ XR (Fullerton, Calif.). 50 frames of cells were counted and the number of viable cells was determined. The cells were then diluted to 0.25 million cells per ml, and centrifuged at 200 rcf for 5 minutes. The media was removed and the cells were reconstituted in fresh media for plating. The cells were plated at 20 μl per well on the PerkinElmer® Flexprop PLUS in Low Volume 384 Well White Tissue Culture Plates (Corning) with a final cell density of 5K cells per well. The plates were incubated overnight at 37° Celsius, 5% CO2.
On the second day, the compound plates were prepared, the cells were treated with compound and the pAkt reaction mix was added to the cell lysate. 384 well compound plates were prepared containing 1 μl of compound per well starting at 5 mM and diluted 1:2 across the row, resulting in a 22 well serial dilution. 39 μl of growth media was added to the compound plate in rows 1-22 using the PerkinElmer® Flexprop PLUS resulting in a DMSO concentration of 2.5%. The cell plates and diluted compound plates were put onto the VELOCITY11™ VPREP™ 384 ST where the compound plate was mixed and 5 μl of serially diluted compound or controls was added to the cell plate. The final concentration of the compounds was 25 μM serially diluted to 11.9 pM in 0.5% DMSO. The cell plates were then incubated with compound for two hours at 37° Celsius, 5% CO2. After two hours, the media in the cell plates was aspirated using the BioTek® ELx405HT plate washer (Winooski, Vt.) removing the majority of media and compound without disturbing the adherent U87 cells. The following assay reagents are components of the SureFire® Akt (Ser 473) Phosphorylation 50K Point Kit (TGR BioSciences, Adelaide, Australia) and an IgG Detection Kit (PerkinElmer, Waltham, Mass.). 5 μl of 1× Lysis Buffer was added to each well using the PerkinElmer® Flexprop PLUS. The plates were then incubated at room temperature on a shaker for ten minutes. The AlphaScreen® reaction was prepared under low light conditions (subdued or green light) including p-Akt (Ser 473) Reaction Buffer, Dilution Buffer, Activation Buffer, Acceptor Beads and Donor Beads at a ratio of 40:20:10:1:1 respectively. The AlphaScreen® reaction was added to the cell lysate at 6 μl per well using the PerkinElmer® Flexprop PLUS. The plates were placed in a humid environment to reduce edge effects and incubated overnight at room temperature with restricted air flow in the dark.
On the final day of the experiment, the plates were read on the PerkinElmer® EnVision™ 2103 Multilable Reader using the standard AlphaScreen® readout. The POC is calculated and the data is analyzed to report the IC50 IP for pAkt at Serine 473.
Activity data for the compounds tested in the PI3K cell based Akt assay is provided in Table 1 under the column heading U87

In the next assay the target is mTOR (Homo sapiens (Human), UniProt P42345). The assay can be described thus: In vitro mTOR Lanthascreen assay. It is filed as biochemical. Conditions: average if run more than once. The text has this:
The Invitrogen (Carlsbad, Calif.) mammalian target of rapamycin (mTOR) Lanthascreen assay can be used to quantitate mTOR kinase activity in an in vitro setting. Active mTOR phosphorylates eukaryotic translation initiation factor 4E binding protein 1 (4E-BP1) on residue threonine 46. This phosphorylation event can be detected with a phospho-specific terbium (Tb) labeled Ab, in turn bringing the Tb label in close proximity to the GFP tagged 4E-BP 1 and allowing for time-resolved fluorescence resonance energy transfer (TR-FRET), which correlates 4E-BP1 phosphorylation levels with mTOR kinase activity.
Enzyme reaction buffer can be prepared in deionized water containing 50 mM HEPES (pH 7.5), 0.01% Polysorbate 20, 1 mM EGTA, and 10 mM MnCl2.
Dilutions of the compound to be tested can be prepared in 96-well polypropylene plates (Fisher Scientific, Waltham, Mass.). One row represents a 10-point dose of compound diluted 1:3 in enzyme reaction buffer and 20% dimethyl sulfoxide (DMSO). The top concentration for all compounds is 36 μM. Wells 6 and 12 can serve as the no compound (DMSO only) and high compound controls.
An mTOR substrate solution can prepared in enzyme reaction buffer containing 1600 nM green fluorescent protein tagged eukaryotic translation initiation factor 4E binding protein 1 (GFP-4E-BP1) (Invitrogen, Carlsbad, Calif.) and 28 uM adenosine triphosphate (ATP) (Calbiochem, Gibbstown, N.J.).
mTOR enzyme (Invitrogen, Carlsbad, Calif.) can be diluted in enzyme reaction buffer to a working concentration of 100 ng/mL.
The enzyme assay can be run in 384 well low volume assay plates (Corning, Corning, N.Y.). 2.5 uL of substrate solution containing GFP-4E-BP1 and ATP can be added to appropriate wells in the assay plate followed by 2.5 μL of compound dilutions. 5 μL of appropriately diluted mTOR enzyme can be added and the reaction allowed to proceed for 1 hour at room temperature. Final reagent concentrations in the enzyme assay are 50 ng/mL mTOR, 400 nM GFP-4E-BP1, and 7 μM ATP.
The enzyme assay can be terminated upon the addition of 10 μL of 20 mM EDTA and 4 nM Tb-labeled anti-phospho-4E-BP1 [T46] antibody (Invitrogen, Carlsbad, Calif.). The assay plate can then be incubated at room temperature for 1 hour and results read on a Tecan Safire II plate reader (Tecan, Männedorf, Switzerland).
On the technique in general: In TR-FRET formats the signal depends on donor and acceptor labels being close together.

Assay [3] concerns the target T1, PI3Kα. Briefly: In vitro PI3 kinase enzyme assay (PI3K ATPLoss). It is filed as biochemical. Conditions: average if run more than once. As for the experimental part:
Recombinant Expression of PI3K Enzymes
Full length p110 subunits of PI3K α, β and δ, N-terminally labeled with polyHis tag, can be co-expressed with p85 with Baculo virus expression vectors in sf9 insect cells. P110/p85 heterodimers can be purified by sequential Ni-NTA, Q-HP, Superdex-100 chromatography. Purified α, β and δ isozymes can be stored at −20° C. in 20 mM Tris, pH 8, 0.2M NaCl, 50% glycerol, 5 mM DTT, 2 mM Na cholate. […] The γ isozyme can be purified by sequential Ni-NTA, Superdex-200, Q-HP chromatography. The γ isozyme can be stored frozen at −80° C. in NaH2PO4, pH 8, 0.2M NaCl, 1% ethylene glycol, 2 mM β-mercaptoethanol.
In Vitro PI3 Kinase Enzyme Assays (PI3K ATPLoss)
PI3K enzyme assays (alpha, beta, delta and gamma) can be performed in 25 μL with the above final concentrations of components in white polyproplyene plates. Phosphatidyl inositol phosphoacceptor, PtdIns(4,5)P2 (e.g., P4508) can be obtained from Echelon Biosciences, Salt Lake City, Utah. […] Test compounds can be dissolved in DMSO and diluted with three-fold serial dilutions. The compound in DMSO (1 μL) may be added per test well, and the inhibition relative to reactions containing no compound, with and without enzyme can be determined. After assay incubation at RT, the reaction can be stopped and residual ATP can be determined by addition of an equal volume of a commercial ATP bioluminescence kit (Perkin Elmer EasyLite, Perkin Elmer, Waltham, Mass.) according to the manufacturer's instructions, and detected using an Analyst GT luminometer.

T1 sequence (P42336 whole entry): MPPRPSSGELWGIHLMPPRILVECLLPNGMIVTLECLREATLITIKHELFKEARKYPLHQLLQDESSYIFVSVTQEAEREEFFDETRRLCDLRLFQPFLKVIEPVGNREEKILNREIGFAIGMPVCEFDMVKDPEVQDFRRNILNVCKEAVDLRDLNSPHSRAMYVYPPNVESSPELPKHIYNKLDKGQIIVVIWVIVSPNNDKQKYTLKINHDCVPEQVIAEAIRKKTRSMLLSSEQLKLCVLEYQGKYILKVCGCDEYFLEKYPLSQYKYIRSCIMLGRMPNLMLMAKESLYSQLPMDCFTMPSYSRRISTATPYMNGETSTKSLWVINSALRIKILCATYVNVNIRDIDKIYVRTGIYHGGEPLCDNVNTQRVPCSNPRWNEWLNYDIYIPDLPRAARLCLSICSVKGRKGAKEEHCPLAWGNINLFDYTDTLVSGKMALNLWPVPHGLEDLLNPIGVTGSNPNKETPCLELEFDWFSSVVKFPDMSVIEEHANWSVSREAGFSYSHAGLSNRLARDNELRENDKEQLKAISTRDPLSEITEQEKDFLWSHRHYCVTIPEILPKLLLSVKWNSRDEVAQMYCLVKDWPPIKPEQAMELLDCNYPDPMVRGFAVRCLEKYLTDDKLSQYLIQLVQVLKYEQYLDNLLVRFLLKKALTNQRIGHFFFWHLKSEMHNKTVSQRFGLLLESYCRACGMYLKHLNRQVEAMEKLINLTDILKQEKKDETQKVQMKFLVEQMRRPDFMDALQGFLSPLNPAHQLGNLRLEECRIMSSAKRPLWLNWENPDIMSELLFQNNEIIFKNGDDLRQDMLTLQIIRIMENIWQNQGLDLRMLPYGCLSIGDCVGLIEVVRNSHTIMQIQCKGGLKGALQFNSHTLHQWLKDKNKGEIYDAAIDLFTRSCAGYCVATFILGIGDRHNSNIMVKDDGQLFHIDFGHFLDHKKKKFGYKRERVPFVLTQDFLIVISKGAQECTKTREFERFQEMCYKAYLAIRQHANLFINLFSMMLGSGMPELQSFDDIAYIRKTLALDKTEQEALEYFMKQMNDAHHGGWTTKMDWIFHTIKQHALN
T1 sequence (P27986 whole entry partner): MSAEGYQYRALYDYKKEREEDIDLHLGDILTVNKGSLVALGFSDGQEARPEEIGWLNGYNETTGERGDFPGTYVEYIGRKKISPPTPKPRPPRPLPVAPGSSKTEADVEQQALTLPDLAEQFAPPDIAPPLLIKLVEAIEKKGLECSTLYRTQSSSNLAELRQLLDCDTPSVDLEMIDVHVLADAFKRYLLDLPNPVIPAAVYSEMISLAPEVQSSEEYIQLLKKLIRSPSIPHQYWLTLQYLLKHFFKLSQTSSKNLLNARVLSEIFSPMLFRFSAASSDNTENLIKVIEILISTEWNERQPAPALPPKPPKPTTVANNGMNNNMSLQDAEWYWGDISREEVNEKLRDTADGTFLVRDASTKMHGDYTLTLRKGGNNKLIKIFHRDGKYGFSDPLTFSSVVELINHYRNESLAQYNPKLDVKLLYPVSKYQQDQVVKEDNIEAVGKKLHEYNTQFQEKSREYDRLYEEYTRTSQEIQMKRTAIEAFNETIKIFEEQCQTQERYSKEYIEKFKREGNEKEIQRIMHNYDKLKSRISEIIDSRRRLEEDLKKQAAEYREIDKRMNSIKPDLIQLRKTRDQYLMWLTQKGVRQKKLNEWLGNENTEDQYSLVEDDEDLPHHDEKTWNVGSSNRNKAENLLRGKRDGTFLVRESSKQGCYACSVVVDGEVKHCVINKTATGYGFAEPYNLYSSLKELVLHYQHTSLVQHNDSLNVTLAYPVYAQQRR
mTOR, sequence (P42345 1360-2549): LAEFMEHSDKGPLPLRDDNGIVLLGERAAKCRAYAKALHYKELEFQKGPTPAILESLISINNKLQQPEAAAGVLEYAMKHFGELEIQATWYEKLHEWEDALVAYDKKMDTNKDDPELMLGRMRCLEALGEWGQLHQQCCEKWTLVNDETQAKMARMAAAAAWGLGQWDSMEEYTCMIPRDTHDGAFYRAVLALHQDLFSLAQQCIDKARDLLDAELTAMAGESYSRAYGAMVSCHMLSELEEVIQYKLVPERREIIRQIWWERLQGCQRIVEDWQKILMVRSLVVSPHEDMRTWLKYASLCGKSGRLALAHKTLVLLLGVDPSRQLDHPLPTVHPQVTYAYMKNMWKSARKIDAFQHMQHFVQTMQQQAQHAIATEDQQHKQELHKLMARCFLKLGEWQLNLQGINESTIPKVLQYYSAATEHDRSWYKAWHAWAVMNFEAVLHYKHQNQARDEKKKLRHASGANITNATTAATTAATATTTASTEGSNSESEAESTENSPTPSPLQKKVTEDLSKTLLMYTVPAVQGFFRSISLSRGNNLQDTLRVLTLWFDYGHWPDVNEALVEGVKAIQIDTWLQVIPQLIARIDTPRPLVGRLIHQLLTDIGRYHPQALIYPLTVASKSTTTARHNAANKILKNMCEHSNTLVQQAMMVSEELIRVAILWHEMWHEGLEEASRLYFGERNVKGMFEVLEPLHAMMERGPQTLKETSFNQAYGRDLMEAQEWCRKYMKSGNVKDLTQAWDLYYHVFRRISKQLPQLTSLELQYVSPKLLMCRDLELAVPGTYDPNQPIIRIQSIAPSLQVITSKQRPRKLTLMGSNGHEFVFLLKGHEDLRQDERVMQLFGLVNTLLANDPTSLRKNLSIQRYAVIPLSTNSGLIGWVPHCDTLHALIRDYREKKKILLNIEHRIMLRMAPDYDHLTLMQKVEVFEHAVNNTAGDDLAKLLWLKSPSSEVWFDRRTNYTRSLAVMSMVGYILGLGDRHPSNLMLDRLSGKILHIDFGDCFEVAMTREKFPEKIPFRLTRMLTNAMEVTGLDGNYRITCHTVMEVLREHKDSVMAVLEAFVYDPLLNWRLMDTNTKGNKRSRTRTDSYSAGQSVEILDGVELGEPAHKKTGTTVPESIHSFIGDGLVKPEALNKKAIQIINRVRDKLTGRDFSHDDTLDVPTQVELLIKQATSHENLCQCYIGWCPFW

Regarding `COc1cc(-c2cnc3ccc(N4C(=O)OC[C@H]4Cc4ccccc4)cn23)cnc1OC` [Example 14, (4R)-4-Benzyl-3-(3-(5,6-dimethoxy-3-pyridinyl)imidazo[1,2-a]pyridin-6-yl)-1,3-oxazolidin-2-one], at PI3Kα [1], affinity was put at a Ki of 268 nM. The IC50 (in general, the concentration that gives 50% inhibition) in assay [2] worked out at 6970 nM.

Turning to `COc1cc(-c2cnc3ccc(N4C(=O)OC[C@@H]4Cc4ccccc4)cn23)cnc1OC` [Example 15, (4S)-4-Benzyl-3-(3-(5,6-dimethoxy-3-pyridinyl)imidazo[1,2-a]pyridin-6-yl)-1,3-oxazolidin-2-one], the Ki (in general, the equilibrium dissociation constant of an inhibitor or competing ligand from its target) on PI3Kα [1] is 286 nM. This molecule registered an IC50 in assay [2] of 6620 nM.

As to `O=c1n(Cc2ccccc2)ccc2ncc(-c3cnc(Cl)c(NS(=O)(=O)c4ccc(F)cc4)c3)n12` [Example 17, N-(5-(6-Benzyl-5-oxo-5,6-dihydroimidazo[1,2-c]pyrimidin-3-yl)-2-chloropyridin-3-yl)-4-fluorobenzenesulfonamide], at mTOR, inhibition was half-maximal at 180 nM (IC50). On PI3Kα [1], this molecule displayed a Ki of 465 nM.

Turning to `O=S(=O)(Nc1cncc(-c2cnc3ccccn23)c1)c1ccc(F)cc1` [Example 2, 4-Fluoro-N-(5-imidazo[1,2-a]pyridin-3-yl-3-pyridinyl)benzenesulfonamide], on PI3Kα [3], the IC50 was found to be 931 nM. Also, affinity at PI3Kα [1] was put at a Ki of 1290 nM.

As to `O=S(=O)(Nc1cc(-c2cnc3ncccn23)cnc1Cl)c1ccc(F)cc1` [Example 24, N-(2-Chloro-5-(imidazo[1,2-a]pyrimidin-3-yl)pyridin-3-yl)-4-fluorobenzenesulfonamide], the IC50 against PI3Kα [3] was 781 nM; against mTOR, above 50000 nM. Affinity on PI3Kα [1] was put at a Ki of 378 nM.
